“Also recorded” adds a separate entry of the source. Structures can show the parent of a compound that is named as a salt.

In experiment [1] the test system is 143B.TK−K7 cells. The experiment in a line: Mitochondrial membrane potential by JC-1 staining (confocal microscopy). To be noted: 10 μM CCCP for 30 minutes before JC-1; 24 and 62 hours cultivation time. It is filed as cell-based, Human. How it is done: Documentation at 24 hours (A1-A3, B1-B3) and 62 hours (C1-C3, D1-D3) cultivation time by JC-1-staining. The red fluorescence of J-aggregates (A1, B1, C1, D1) as well as the green monomer form (A2, B2, C2, D2) were analysed simultaneously by excitation wavelength of 488 nm. Images A3, B3, C3, D3 show overlays. Calibration bars correspond to 10 μm.
To measure differences in mitochondrial membrane potential between the various stages of megamitochondria formation and control cells the dual emission of the potentiometric dye JC-1 was observed. The cells either were incubated directly with 3 μM JC-1 diluted in the standard culture medium and filtered once with 0.2 μm syringe filter for 30 min at 37° C. or first treated with CCCP (final concentration 10 μM) for 30 min for the comparison of cells without membrane potential. The cells were viewed in vivo with the inverse confocal laser scanning microscope (simultaneous excitation of red and green fluorescence by 488 nm wavelength) to observe local differences in the mitochondrial membrane potential.
To determine the mitochondrial membrane potential during the formation of megamitochondria 143B.TK^−K7 cells were either directly stained with JC-1 […] or incubated with […] CCCP for 30 minutes before. […]

Experiment [2] deals with 143B.TK−K7gm cells. As to the kind of experiment: Formation of megamitochondria in drug-treated cells (fluorescence/confocal microscopy of EGFP-Mito). The format is cell-based, Human. As for the experimental part: (A) 24 h after seeding 143B.TK^−K7gm cells were incubated with 10 μM CCCP (A A1), 10 μM valinomycin (A A2, B) or 1 μM nigericin (A A3) for 18 h.
(§1) (A) 143B.TK^−K7gm cells stained with EGFP-Mito were treated with 4 μM cytochalasin B (A1, A2, B1, B2) at different cultivation times for 9-15 hours or an equivalent amount of solvent as control (A3, A4, B3, B4). Staining of actin cytoskeleton was achieved by Alexa Fluor […] phalloidin in fixed cells (A2, B2, A4, B4). Arrow heads indicate round areas in the cytoplasm observable by actin staining after 62 hours cultivation time.
143B.TK^−K7gm cells were treated with 10 μM nocodazol at different cultivation times for 9-15 hours (A1, A2, B1, B2) or as control with an equivalent amount solvent (A3, A4, B3, B4). The morphology of mitochondria is shown by in vivo EGFP-Mito-staining in the images A1, B1, C1, A3, B3, C3. The staining of tubulin cytoskeleton was performed by an antibody against alpha-tubulin and a Cy3-coupled secondary antibody in fixed cells (A2, B2, A4, B4). Calibration bars correspond to 10 μm.
(§2) Drugs (final concentrations 6-10 μM nocodazol, 2.4-4 μM cytochalasin B, 10 μM CCCP, 10 μM valinomycin and 1 μM nigericin) were added to standard culture medium at different stages of megamitochondria development.
(§3) To avoid a cross talk in excitation of multiple stained compounds always a sequential scanning mode was used in confocal microscopy.
To investigate the influence of the mitochondrial membrane potential on the formation and back formation of the megamitochondria 143B.TK^−K7gm cells were incubated with 10 μM CCCP (H^+ ionophore), 10 μM valinomycin (K^+ selective ionophore) and 1 μM nigericin (selective electron neutral K^+/H^+ exchange) (FIG. 4).
(§4) To observe the influence of the tubulin or actin cytoskeleton, respectively, on the formation of megamitochondria 143B.TK^−K7 gm cells were incubated with 10 μM nocodazol or […] cytochalasin B for 9-15 hours.

For experiment [3], the system named is 143B.TK−K7gm cells with megamitochondria. The experiment in a line: Back-formation of megamitochondria after exchange of acidic medium in drug-treated cells. It is filed as cell-based, Human. The settings on record: fresh medium also with drug; for back-formation of megamitochondria (mitochondrial morphology after medium exchange): 10 μM CCCP, 10 μM valinomycin or 1 μM nigericin for 30 minutes, analysed 60 minutes after medium exchange; for back-formation of megamitochondria: 6 μM nocodazol or 2.4 mM cytochalasin B for 3 hours, observed one and three hours after medium exchange. How it is done:
(C) 143B.TK^−K7gm cells with megamitochondria were incubated with 10 μM CCCP (C A1, B1), 10 μM valinomycin (C A2, B2) or 1 μM nigericin (C A3, B3) for 30 minutes. 60 Minutes after medium exchange (ME) the mitochondrial morphology was analysed. Untreated controls are shown in A A4 and C A4, B4. Calibration marks correspond to 10 μm.
(B) The influence of the actin cytoskeleton on the back-formation of megamitochondria in 143B.TK^−K7gm cells was tested by treatment with 2.4 μM cytochalasin B (A1, A2, C1, D1) or an an equivalent amount of solvent as control (B1, B2, C2, D2) for 3 hours. Mitochondrial morphology was analyzed one (C1, C2) or three hours (D1, D2) after medium exchange. Staining of action cytoskeleton was carried out by Alexa Fluor […] phalloidin in fixed cells (A2, B2).
143B.TK^−K7gm cells with megamitochondria were incubated for 3 hours with 6 μM nocodazol (A1, A2, C1, D1) or as control with an equivalent amount solvent (B1, B2, C2, D2). The analysis of mitochondrial changes in structure were carried out 1 hour (C1, C2) or 3 hours (D1, D2) after the exchange of acidic medium. Arrow heads indicate abnormal ring shaped mitochondrial structures persisting for at least 3 hours. Calibration bars correspond to 10 μm.
as §2, §3
To investigate the influence of the different chemicals on the back-formation of megamitochondria the cells were incubated with indicated concentrations of CCCP, valinomycin and nigericin for 30 minutes (FIG. 4C).
The influence of tubulin and actin cytoskeleton inhibition on back-formation of megamitochondria was performed with 143B.TK^− K7 gm cells with megamitochondria 3 hours after incubating the cells with 6 μM nocodazol or […] cytochalasin B. After changing the used acidic medium and its replacement by fresh medium also completed by the drugs structural changes of mitochondria were observed one hour and three hours later.

For experiment [4], the system named is 143B.TK−K7gm cells. As to the kind of experiment: Induction of megamitochondria by changes of culture medium. It is filed as cell-based, Human. The settings on record: medium with HCl or lactic acid (pH 6.7-5.3) or 30-180 mM sodium lactate (pH 7.4 maintained); one hour.
Protocol: (§5) The induction of megamitochondria formation was done by the transfer of acidic medium from 143B.TK^− K7 ρ^0 cells and by an artificial acidification of fresh medium with lactic acid, pH 6.0-6.3. Additional changes of culture medium were performed by an acidification of the medium with HCl, addition of 30-180 mM sodium lactate and 1.3-2.0 mM NaOH.
(§6) To test whether megamitochondria can be induced by extrinsic changes of pH value or lactic acid concentration in the culture medium 143B.TK^−K7gm, 143B.TK^−gm and HeLa were incubated with medium complemented with HCl and lactic acid, respectively (pH 6.7-5.3). Additionally, the influence of high concentrations of sodium lactate (30-180 mM) on the megamitochondria formation was determined without changing the pH. A pH value of 6.7-6.8 and a lactate concentration of 30 mM corresponds to the measured values in the analysed cultivation medium of 143B.TK^−K7 cells. Incubation of cells was carried out for one hour with subsequent analyses of mitochondrial morphology in vivo.
The test system of experiment [5] is 143B.TK−K7gm cells with megamitochondria. The experiment in a line: Back-formation of megamitochondria by changes of culture medium. To be noted: one hour. The format is cell-based, Human.
Protocol: Similar experiments were carried out to investigate the back-formation of megamitochondria (FIG. 9). To this end, 143B.TK^−K7 gm cells with megamitochondria were incubated in medium complemented with different additions. Changes of pH value were reached by the addition of 0.04-0.2 mM NaOH into the used culture medium as well as by the addition of HCl and lactic acid, respectively, of values 7.0-5.6 in fresh culture medium. Moreover, the influence of high concentrations of sodium lactate on the back-formation of megamitochondria was analysed by adding 20-210 mM sodium lactate, pH 7.4 into fresh medium without changing the pH value. Treatment of cells with different media was performed for one hour, thereafter the mitochondrial morphology was analysed by fluorescence microscopy.
The test system of experiment [6] is HeLa cells. The experiment in a line: Induction of megamitochondria by changes of culture medium. It is filed as cell-based. To be noted: medium with HCl or lactic acid (pH 6.7-5.3) or 30-180 mM sodium lactate (pH 7.4 maintained); one hour.
Protocol: as §5, §6
Experiment [7] has as its system 143B.TK−gm cells. The experiment is described as above. The format is cell-based, Human. The settings on record: medium with HCl or lactic acid (pH 6.7-5.3) or 30-180 mM sodium lactate (pH 7.4 maintained); one hour.
Protocol: as §5, §6
The test system of experiment [8] is actin cytoskeleton. The experiment in a line: Staining of actin cytoskeleton by phalloidin in fixed cells. To be noted: 4 mM cytochalasin B for 9-15 hours, 143B.TK−K7gm cells. It is filed as cell-based, Human. How it is done:
as §1
For detection of the actin cytoskeleton cells on cover slips treated as indicated were fixed with 3.7% formaldehyde in PBS for 10 min at room temperature and after three washes in PBS for 5 min permeabilized with 0.1% Triton X-100 in PBS for 5 min. After additional washing steps with PBS (5 min) cells were blocked with 1% BSA in PBS for 30 min at room temperature and incubated with 1 unit (5 μl) Alexa Fluor 546 Phalloidin in 1% BSA in PBS for 20 min at room temperature. After washing the cells three times with PBS for 7 min, the cover slips were mounted with Mowiol and analysed with the confocal microscope.
as §4

Experiment [9] relates to tubulin polymerisation. As to the kind of experiment: Immunocytochemical staining of tubulin cytoskeleton with antibody against alpha-tubulin. The settings on record: 10 μM nocodazol for 9-15 hours, 143B.TK−K7gm cells. The format is cell-based, Human.
Protocol: 143B.TK^−K7gm cells were treated with 10 μM nocodazol at different cultivation times for 9-15 hours (A1, A2, B1, B2) or as control with an equivalent amount solvent (A3, A4, B3, B4). […] The staining of tubulin cytoskeleton was performed by an antibody against alpha-tubulin and a Cy3-coupled secondary antibody in fixed cells (A2, B2, A4, B4).
Cells grown on cover slips were treated as indicated, fixed with methanol (−20° C.) for 5 min and permeabilized with 0.2% Triton X-100 in PBS for 5 min at room temperature. After washing three times with PBS (5 min), the blocking reaction was performed with 100 mM glycine in PBS for 10 min following 3% BSA in PBS for 30 min at room temperature.
Subsequently cover slips were incubated with mouse anti-alpha tubulin polyclonal primary antibody diluted 1:50 in 1% BSA in PBS at 4° C. over night. After washing the cells three times with PBS (5 min), the cover slips were incubated with Cy3-conjugated goat secondary antibody in 10% goat serum in PBS for 1 h at room temperature. The cells were washed three times with PBS (7 min) prior to mounting in Mowiol and analysed by fluorescence microscopy.
Where [10] appears, read: 10 μM CCCP, 10 μM valinomycin or 1 μM nigericin for 18 h, 24 h after seeding.
[11] abbreviates: 10 μM nocodazol or 4 mM cytochalasin B for 9-15 hours.

For the compound `N#CC(C#N)=NNc1cccc(Cl)c1` [CCCP], the “mitochondrial membrane potential (JC-1 red/green fluorescence)” value in [1] is “the red fluorescence was clearly less distinct”. Further, the formation of megamitochondria entry in experiment [2] (setting [10]) is on record as “inhibited”. Also, the “back-formation of megamitochondria (mitochondrial morphology after medium exchange)” value in experiment [3] is recorded as “comparable to the control cells”.

Take `Cl` [HCl]: the induction of megamitochondria entry in experiment [4], in experiment [6] and in experiment [7] was “not possible” throughout. Moreover, the back-formation of megamitochondria entry in [5] (fresh medium acidified with HCl, pH 6.0) is reported as “did not change their form”; in experiment [5] (fresh medium acidified with HCl, pH 7.0), “formed back to a tubular network”.

For the compound `[Na+].[OH-]` [NaOH], the back-formation of megamitochondria entry was “did not lead to the back-formation of megamitochondria; also recorded: did not lead to the back formation of megamitochondria” in [5] (1.3 mM NaOH added into the acidic medium); “resulted in a change in mitochondrial morphology from spherical forms to tubules and network-like structures; also recorded: sufficient to induce the back-formation of megamitochondria” in experiment [5] (2.0 mM NaOH added into the acidic medium).

As to `C=C1[C@@H](C)[C@H]2[C@H](Cc3ccccc3)NC(=O)[C@]23OC(=O)/C=C/[C@H](O)CCC[C@@H](C)C/C=C/[C@H]3[C@@H]1O` [cytochalasin B], the formation of megamitochondria entry in experiment [2] (setting [11]) is given as “prevented formation of megamitochondria”. Also, the back-formation of megamitochondria result in [3] was “severe influence on megamitochondria back-formation”. The “effectiveness of drug treatment on actin cytoskeleton (phalloidin staining)” value in experiment [8] is on record as “confirming the effectiveness of drug treatment”.

For `CC(O)C(=O)O` (centres unmarked) [lactic acid], the induction of megamitochondria result in experiment [4], in [6] and in experiment [7] was “led to the formation of megamitochondria” throughout. The back-formation of megamitochondria entry in experiment [5] (fresh medium acidulated with lactic acid, pH 6.8) is “the spherical mitochondria changed to a tubular network”; in experiment [5] (fresh medium acidulated with lactic acid, pH 7.0) it was “resulted in the back-formation of megamitochondria”.

Consider `CO[C@@H]1C[C@@H](C[C@H]2CC[C@H](C)[C@H]([C@@H](C)C(=O)O)O2)O[C@]2(O[C@](C)([C@H]3CC[C@@](C)([C@@H]4O[C@@H]([C@H]5O[C@@](O)(CO)[C@H](C)C[C@@H]5C)C[C@@H]4C)O3)C[C@H]2C)[C@@H]1C` [nigericin], for which the formation of megamitochondria entry in [2] (setting [10]) is “inhibited”. Also, the “back-formation of megamitochondria (mitochondrial morphology after medium exchange)” value in [3] is recorded as “comparable to the control cells”.

For `COC(=O)Nc1nc2ccc(C(=O)c3cccs3)cc2[nH]1` [nocodazol], in experiment [9], the “inhibition of tubulin polymerisation (alpha-tubulin staining)” value was “Complete inhibition of tubulin polymerisation”. The formation of megamitochondria result in [2] (setting [11]) is listed as “no influence of the tubulin cytoskeleton on the formation of megamitochondria”. The back-formation of megamitochondria entry in [3] is listed as “only minor influence on back-formation of megamitochondria”.

Take `CC(O)C(=O)[O-].[Na+]` (centres unmarked) [sodium lactate]: the induction of megamitochondria result in experiment [4], in [6] and in [7] was “not possible” in each case. Moreover, the back-formation of megamitochondria entry in [5] (fresh medium with 20-210 mM sodium lactate, pH 7.4) is on record as “led to the back-formation of megamitochondria in all used concentrations”.

As to `CC(C)[C@@H]1NC(=O)[C@H](C)OC(=O)[C@@H](C(C)C)NC(=O)[C@@H](C(C)C)OC(=O)[C@H](C(C)C)NC(=O)[C@H](C)OC(=O)[C@@H](C(C)C)NC(=O)[C@@H](C(C)C)OC(=O)[C@H](C(C)C)NC(=O)[C@H](C)OC(=O)[C@@H](C(C)C)NC(=O)[C@@H](C(C)C)OC1=O` [valinomycin], the formation of megamitochondria result in experiment [2] (setting [10]) is recorded as “led to the formation of megamitochondria with diameters exceeding the control cells”. Further, the “back-formation of megamitochondria (mitochondrial morphology after medium exchange)” value in [3] was “inhibited the back-formation of megamitochondria”.

Values taken from patent publication US20110166195A1, “METHOD FOR THE FORMATION OF MEGAMITOCHONDRIA” (priority 2008, published 2011).
